Biological target: T1, recombinant human GluN1/GluN2A receptor (Homo sapiens, UniProt Q05586+Q12879)
T1 construct: expressed in transfected cells; host or cells: HEK293, tetracycline-inducible expression
Assay: Whole-cell patch clamp of mammalian cells (Syncropatch 384i), NMDA modulation
Type: cell-based
Details: Table B-2, HEK293 cells, human GluN1/GluN2A, glutamate 1 μM / glycine 100 μM, -80 mV, peak amplitude increase; for EC50: read-out: EC50
Description: Whole-Cell Patch Clamp of Mammalian Cells (Syncropatch 384i (Nanion Technologies))
Whole-cell patch clamp electrophysiology was used to investigate the effects of compounds on GluN1/GluN2A N-methyl-D-aspartate (NMDA) glutamate receptors expressed in mammalian cells.
Human embryonic kidney (HEK293) cells expressing the recombinant human GluN1/GluN2A receptor under the control of a tetracycline-inducible expression system were used. Cells were maintained in Dulbecco's Modified Eagle's Medium (DMEM) with 1% glutamine, 10% Tetracycline System Approved fetal bovine serum (FBS), and NMDA inhibitors. Cells were cultured in a humidified 5% CO2 incubator at 37° C. Cells were induced with 50 ng/ml tetracycline 18-24 hours prior to testing. A cocktail of channel blockers was added to the media to prevent cell death.
Cells were 60-80% confluent at the time of harvest. Cells were detached from the flask TrypLE Enzyme Express (Thermo Fisher) at 37° C., and then cold extracellular solution was added to the flask, followed by incubation at 4° C. and then trituration of the cells. The cell solution was then placed on a shaker on the Syncropatch platform at 10° C. with a shake speed of a minimum 200 rpm for at least 30 minutes prior to testing.
Extracellular (EC) solution (in mM) —140 NaCl, 4 KCl, 5 CaCl2, 10 HEPES, 5 Glucose, pH 7.4 with NaOH. All external solutions contained 0.2% DMSO and 0.01% Kolliphor® EL (C5135, Sigma) throughout the experiment.
Intracellular (IC) solution (in mM) —120 CsF, 10 mM EGTA, 10 NaCl, 10 HEPES, 4 NaATP, 2 MgCl2, pH 7.2 with CsOH.
First, the DMSO Master Plate was prepared, in which the DMSO stock of each test compound was serially diluted in 100% DMSO to 1000× the final assay concentration. Immediately prior to assay testing, the compounds were diluted 1:100 by transferring solutions from the DMSO Mast Plate to the Intermediate Plate pre-filled with EC solution using a Biomek FX automated liquid handling system. Compounds were then diluted further with extracellular solution into two pre-incubation plates—1) compound from the Intermediate Plate was mixed with EC solution at a 1:5 dilution to create a 2× Compound Pre-Incubation Plate which was diluted a further 1:2 when added to the Syncropatch for the initial compound pre-incubation. And 2) compound from the Intermediate plate was mixed with EC solution at a 1:10 Dilution to create the 1× Compound Pre-Incubation Plate, which was used for subsequent compound pre-incubations. Finally, a Compound+Agonist Plate was prepared by mixing compound from the 2× Compound Pre-Incubation Plate with 2× concentration of co-agonists in a 1:1 ratio.
Each experiment sequentially included cell catching, sealing, whole-cell formation, liquid application, recording and data acquisition. Whole-cell patch clamp recordings were performed using multi-hole high resistance chips on the SyncroPatch 384i (Nanion Technologies). A steady-state voltage pulse at -80 mV was applied throughout the assay and a 10 second recording window was triggered around 1 second prior to application of co-agonists. Currents were leak corrected and sampled at 5 kHz.
A fast application was used, in which 5 μl co-agonist was rapidly applied at a speed of 30 μl/s and then rapidly removed from the well. To test for modulator activity, the co-agonists glutamate (1 μM) and glycine (100 μM) were applied three times to show activation reproducibility, followed by 120 seconds pre-incubation of test compound alone. The test compound was then re-applied in the presence of co-agonists two times. This was followed by application of the agonist alone, although test compound may not be fully washed from the well prior to this step. Finally, a saturating concentration of co-agonists (glutamate 100 μM/glycine 100 μM) was applied.
The voltage protocol generation data collection and analysis were performed on PatchControll384 and DataControll384. […]

T1 sequence (Q12879 23-1464, other chains not shown): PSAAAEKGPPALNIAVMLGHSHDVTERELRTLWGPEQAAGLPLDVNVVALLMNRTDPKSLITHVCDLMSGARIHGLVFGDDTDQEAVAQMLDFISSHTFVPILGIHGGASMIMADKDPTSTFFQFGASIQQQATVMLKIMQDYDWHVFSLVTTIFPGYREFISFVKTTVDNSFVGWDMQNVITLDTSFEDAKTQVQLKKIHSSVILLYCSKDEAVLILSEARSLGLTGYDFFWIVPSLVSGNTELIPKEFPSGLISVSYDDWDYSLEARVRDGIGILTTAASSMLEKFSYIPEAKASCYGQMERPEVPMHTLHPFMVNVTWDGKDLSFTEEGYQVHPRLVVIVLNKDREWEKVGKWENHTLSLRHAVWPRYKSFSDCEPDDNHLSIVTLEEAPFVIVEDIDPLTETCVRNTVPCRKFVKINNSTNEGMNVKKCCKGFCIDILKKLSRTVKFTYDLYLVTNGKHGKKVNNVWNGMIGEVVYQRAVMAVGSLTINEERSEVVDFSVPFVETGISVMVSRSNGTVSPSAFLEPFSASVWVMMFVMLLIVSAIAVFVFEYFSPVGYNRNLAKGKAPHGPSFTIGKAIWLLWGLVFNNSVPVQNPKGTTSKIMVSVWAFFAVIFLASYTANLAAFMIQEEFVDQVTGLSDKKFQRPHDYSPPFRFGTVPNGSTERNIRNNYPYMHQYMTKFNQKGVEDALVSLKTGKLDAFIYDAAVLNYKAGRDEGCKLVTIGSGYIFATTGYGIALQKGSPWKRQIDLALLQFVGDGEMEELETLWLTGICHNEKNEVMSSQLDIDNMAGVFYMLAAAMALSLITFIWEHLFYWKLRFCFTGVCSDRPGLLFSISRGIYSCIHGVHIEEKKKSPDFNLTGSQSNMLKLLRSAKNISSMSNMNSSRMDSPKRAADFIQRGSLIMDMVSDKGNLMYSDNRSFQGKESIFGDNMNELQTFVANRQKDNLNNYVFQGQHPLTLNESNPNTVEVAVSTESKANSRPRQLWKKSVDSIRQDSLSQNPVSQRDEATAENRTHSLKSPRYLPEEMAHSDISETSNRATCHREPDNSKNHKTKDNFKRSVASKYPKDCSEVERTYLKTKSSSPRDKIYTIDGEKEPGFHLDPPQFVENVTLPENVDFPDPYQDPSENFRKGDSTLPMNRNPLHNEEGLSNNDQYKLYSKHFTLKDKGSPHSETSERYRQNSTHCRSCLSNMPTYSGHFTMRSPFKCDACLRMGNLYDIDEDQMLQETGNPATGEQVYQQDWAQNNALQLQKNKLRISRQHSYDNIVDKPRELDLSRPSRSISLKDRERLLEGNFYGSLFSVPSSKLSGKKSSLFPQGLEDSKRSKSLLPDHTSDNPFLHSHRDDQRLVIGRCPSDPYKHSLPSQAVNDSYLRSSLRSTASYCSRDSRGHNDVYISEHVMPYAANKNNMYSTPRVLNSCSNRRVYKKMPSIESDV

## CC[C@]1(O)CC[C@@]2(C)[C@@H](CC[C@H]3[C@@H]4[C@H]5C[C@H]5[C@H]([C@H](C)CC[C@@](C)(O)C(F)(F)F)[C@@]4(C)CC[C@@H]32)C1 [Compound B-7, (2S,4aS,4bS,6aR,7S,7aR,8aS,8bS,8cR,10aS)-2-ethyl-4a, 6a-dimethyl-7-((2R,5R)-6,6,6-trifluoro-5-hydroxy-5-methylhexan-2-yl)octadecahydrocyclopropa[4,5]cyclopenta[1,2-a]phenanthren-2-ol]
  Emax: 100 to 200%
  EC50: 100 to 500 nM

## CC[C@]1(O)CC[C@@]2(C)[C@@H](CC[C@@H]3[C@@H]2CC[C@@]2(C)[C@H]3C[C@H]3C[C@]32[C@H](C)CCCC(C)(C)O)C1 [Compound B-8, (2aS,4S,6aS,6bS,8aS,8bS,9aS,10aS,10bR)-4-ethyl-8b-((R)-6-hydroxy-6-methylheptan-2-yl)-6a,8a-dimethyloctadecahydrocyclopropa[3,4]cyclopenta[1,2-a]phenanthren-4-ol]
  Emax: 100 to 200%
  EC50: > 1000 nM

## CC[C@]1(O)CC[C@@]2(C)[C@@H](CC[C@@H]3[C@@H]2CC[C@@]2(C)[C@H]3C[C@H]3C[C@]32[C@H](C)CC[C@](C)(O)C(F)(F)F)C1 [Compound B-10, (2aS,4S,6aS,6bS,8aS,8bS,9aS,10aS,10bR)-4-ethyl-6a,8a-dimethyl-8b-((2R,5S)-6,6,6-trifluoro-5-hydroxy-5-methylhexan-2-yl)octadecahydrocyclopropa[3,4]cyclopenta[1,2-a]phenanthren-4-ol]
  Emax: 100 to 200%
  EC50: 1 to 100 nM

## CC[C@]1(O)CC[C@@]2(C)[C@@H](CC[C@@H]3[C@@H]2CC[C@@]2(C)[C@H]3C[C@H]3C[C@]32[C@H](C)CC[C@@](C)(O)C(F)(F)F)C1 [Compound B-11, (2aS,4S,6aS,6bS,8aS,8bS,9aS,10aS,10bR)-4-ethyl-6a,8a-dimethyl-8b-((2R,5R)-6,6,6-trifluoro-5-hydroxy-5-methylhexan-2-yl)octadecahydrocyclopropa[3,4]cyclopenta[1,2-a]phenanthren-4-ol]
  Emax: 100 to 200%
  EC50: 1 to 100 nM

## CC[C@]1(O)CC[C@@]2(C)[C@@H](CC[C@H]3[C@@H]4[C@@H](C)C[C@H]([C@H](C)CCCC(C)(C)O)[C@@]4(C)CC[C@@H]32)C1 [Compound B-12, (3S,5S,8R,9S,10S,13R,14S,15S,17R)-3-ethyl-17-((R)-6-hydroxy-6-methylheptan-2-yl)-10,13,15-trimethylhexadecahydro-1H-cyclopenta[a]phenanthren-3-ol]
  Emax: 100 to 200%
  EC50: 1 to 100 nM

## CC[C@]1(O)CC[C@@]2(C)[C@@H](CC[C@H]3[C@@H]4[C@@H](C)C[C@H]([C@H](C)CC[C@@](C)(O)C(F)(F)F)[C@@]4(C)CC[C@@H]32)C1 [Compound B-13, (3S,5S,8R,9S,10S,13R,14S,15S,17R)-3-ethyl-10,13,15-trimethyl-17-((2R,5R)-6,6,6-trifluoro-5-hydroxy-5-methylhexan-2-yl)hexadecahydro-1H-cyclopenta[a]phenanthren-3-ol]
  Emax: > 200%
  EC50: 100 to 500 nM

## CC[C@]1(O)CC[C@@]2(C)[C@@H](CC[C@H]3[C@@H]4[C@@H](C)C[C@H]([C@H](C)CC[C@](C)(O)C(F)(F)F)[C@@]4(C)CC[C@@H]32)C1 [Compound B-14, (3S,5S,8R,9S,10S,13R,14S,15S,17R)-3-ethyl-10,13,15-trimethyl-17-((2R,5S)-6,6,6-trifluoro-5-hydroxy-5-methylhexan-2-yl)hexadecahydro-1H-cyclopenta[a]phenanthren-3-ol]
  Emax: > 200%
  EC50: 1 to 100 nM

## CC[C@]1(O)CC[C@@]2(C)[C@@H](CC[C@H]3[C@@H]4[C@H](C)C[C@H]([C@H](C)CC[C@](C)(O)C(F)(F)F)[C@@]4(C)CC[C@@H]32)C1 [Compound B-15, (3S,5S,8R,9S,10S,13R,14S,15R,17R)-3-ethyl-10,13,15-trimethyl-17-((2R,5S)-6,6,6-trifluoro-5-hydroxy-5-methylhexan-2-yl)hexadecahydro-1H-cyclopenta[a]phenanthren-3-ol]
  Emax: 100 to 200%
  EC50: 1 to 100 nM

Reference: patent US20240368214A1, “POSITIVE NMDA-MODULATING COMPOUNDS AND METHODS OF USE THEREOF” (SAGE THERAPEUTICS, INC., priority 2021, published 2024)
